In brackets after ≈: the same amount, converted by molar mass.
Legend:
Rubeola virus = assay: Antiviral effect against Rubeola virus at concentrations of CT0 (reduction of TCID50 virus titer); format: cell-based, Rubeola virus (strain Judith); conditions: RK-13 cell cultures, log TCID50 difference of control and test compound
in vitro = format: cell-based
Protocol: The antiviral testing of the compounds was carried out in two steps. First the dose-response curve of cytotoxicity was plotted, then the antiviral activity was assayed in cell cultures containing nontoxic amounts of the compound.
1. The cytotoxicity of the compounds was assayed in HeLa and RK-13 cell cultures by quantitating the protein content of the cells [S. Horvath: Cytotoxicity of drugs and diverse chemical agents to cell cultures, Toxicology, 16, 59 (1980)]. From the data of the dose-response curve the 50 percent cytotoxic concentration of the compounds was determined (CT50), i.e. the concentration inhibiting cell proliferation by 50 percent. Similarly from the data of the dose-response curve the highest concentration of the compounds where cell proliferation compared to the control is not inhibited at all, can be determined, too (0 percent cytotoxic concentration, CT0). To simplify matters, in the Table the logarithm of these values is summarized (i.e. log CT0 =1 representing a concentration of 10 μg/ml).

[1] = Oral toxicity (LD50) in rats; conditions: rat, in vivo

SMILES	Δlog TCID50 (Rubeola virus)	CC50 (in vitro; human, hela cells) [µg/mL]	MNTC (in vitro; human, hela cells) [µg/mL]	CC50 (in vitro; rabbit, rk-13 cells) [µg/mL]	MNTC (in vitro; rabbit, rk-13 cells) [µg/mL]	LD50 [1] [mg/kg]
CSc1n[nH]c(NC(=O)c2ccccc2C)n1 [Example 47, 3-methylthio-5-(2-methyl-benzoyl-amino)-1H-1,2,4-triazole]	≥ 6.8	100 (≈ 403 µM)	39.8	79.4 (≈ 320 µM)	12.6	3200
CSc1n[nH]c(NC(=O)c2ccccc2Br)n1 [Example 53, 3-methylthio-5-(2-bromo-benzoyl-amino)-1H-1,2,4-triazole]	≥ 6.8	126 (≈ 402 µM)	39.8	79.4 (≈ 254 µM)	25.1	–
CSc1n[nH]c(NC(=O)c2ccccc2[N+](=O)[O-])n1 [Example 61, 3-methylthio-5-(2-nitro-benzoyl-amino)-1H-1,2,4-triazole]	3.0	39.8 (≈ 143 µM)	10	63.1 (≈ 226 µM)	15.8	–
CSc1n[nH]c(NC(=O)c2ccccc2Cl)n1 [Example 63, 3-methylthio-5-(2-chloro-benzoyl-amino)-1H-1,2,4-triazole]	≥ 5.3	50.1 (≈ 187 µM)	7.94	79.4 (≈ 296 µM)	15.8	–
CSc1n[nH]c(NC(=O)c2ccccc2SC)n1 [Example 70, 3-methylthio-5-(2-methylthio-benzoyl-amino)-1H-1,2,4-triazole]	≥ 5.3	79.4 (≈ 283 µM)	20	50.1 (≈ 179 µM)	15.8	–
CCSc1n[nH]c(NC(=O)c2ccccc2C)n1 [Example 73, 3-ethylthio-5-(2-methyl-benzoyl-amino)-1H-1,2,4-triazole]	≥ 6.0	50.1 (≈ 191 µM)	7.94	–	–	–

Reference: patent US4537899A, “Antiviral acylated 1,2,4-triazole derivatives” (BIOGAL Gyogyszergyar, priority 1982, dated 1985)
